According to patent publication US6979447B2, “Immunomodulation and effect on cell processes relating to serotonin family receptors” (Philadelphia Health and Education Corporation, priority 2001, dated 2005):

What was measured:
human lymphocytes [1] = assay: Human mitogenic (ConA) stimulation, 3H-thymidine incorporation; assay type: cell-based; settings: for relief of phenelzine-induced inhibition: added to phenelzine-inhibited cells, 100 μM each; for effect on stimulation of ConA-stimulated human PBLs: reagents at 400 μM, time course, FIG. 4; for effect on activation / proliferative response: ConA 5 μg/ml, FIGS. 7A, 8A, 9A
Procedure: Blood from healthy volunteers was drawn using venipuncture, using Vacutainer collection sets and heparinized collection vials. The blood was diluted 1:1 using HBSS to a total volume of 30 ml in 50 ml conical tubes (Fisher Scientific, Co., Pittsburgh, Pa.). […] Cells from the buffy coats were collected and the residual Histopaque was washed away using repeated centrifugations in HBSS. After washes, cells were resuspended at 5 million cells per ml in RPMI, supplemented with 2% FBS. To remove adherent cells, the suspension was plated onto a 6 well flat-bottom plate (Corning Costar), 3 ml/well, and incubated for 2 hours at 37° C., 5% CO2. Non-adherent cells were harvested after this incubation, were counted and resuspended in RPMI supplemented with 10% human serum (Sigma).
All drugs were pre-plated before the cell suspension was added onto each well of a 96-well round-bottom plate. All experimental conditions were assayed in at least triplicate. Cells suspended in RPMI supplemented with 10% human serum were plated at 100,000 cells per well to a final volume of 200 μl. […] Control samples received no ConA stimulation. The plates were incubated at 37° C. and 5% CO2. One microCurie of tritiated thymidine was added to each well after 60 hours, and the plates were harvested 12 hours later.

T cells = assay: Macrophage media-conditioning study, T cell proliferation in conditioned media; assay type: cell-based, mouse; settings: added to conditioned media, FIG. 1
Excerpt: Femur and tibia bones were harvested from the hind limbs of 6-8 week old C57/B6J mice (Jackson Laboratories, Bar Harbor, Me.). The distal ends of the bones were removed, exposing the marrow plugs. Using a 22 gauge needle (Becton-Dickinson, Lincoln Park, N.J.), the marrow cavities were flushed with RPMI medium supplemented 2% FBS. The cell suspension was then passed through a nylon mesh to remove stromal cells. Red blood cells were lysed using ACK (ammonium chloride potassium lysis buffer; 0.15 M NH4Cl, 10 mM KHCO3, 0.1 mM EDTA) buffer as described in Current Protocols in Immunology (Section 3.1.5).
Cells were resuspended at 10^7 cells/ml in RPMI medium, containing 10% FBS, 500 units/ml of murine M-CSF, and 3 ml/well of cell suspension were plated onto a 6 well flat-bottom plate. […] Cells were grown for 4 days. Spleens of 6-8 week old BALB/c/BYJ were harvested, and single cell suspension was made. Red blood cells were removed as described above. Adherent cells were removed by 1.5 hour incubation on a nylon wool column, and suspension cells were collected. The BALB/c cells were then plated over the C57/B6 cells (see supra), at 1.2×10^6 cells/well, in 0.65 ml (bringing brought the final volume of each well to 1.3 ml). The cells were grown for 2.5 days. When appropriate, fluoxetine or BCH were added at the beginning of this incubation. The medium from the mixed cell cultures was harvested, centrifuged at 1200 RPM to remove cells, and filtered using a 0.22 microns syringe filter (Corning). This filtered medium was used to support another round of cell proliferation.

human lymphocytes [2] = assay: Human mixed lymphocyte reaction (allogeneic stimulation); assay type: cell-based; settings: allogeneic stimulation, harvested 120 hours, FIGS. 7B, 8B, 9B
Excerpt: Blood from two healthy, non-related, donors was taken as described above. Peripheral blood mononuclear cells were isolated as described previously elsewhere. The adherent cells were separated from the suspension cells as described previously for both donors. Suspension cells from both donors (donors A and B) were used as responders. The remaining adherent cells from each of the donors were used as stimulators against a different donor (suspension A against adherent B and adherent A against suspension B). The stimulator cells were irradiated at 35 Gy. Drugs were pre-plated onto 96 well, U-bottom plates in triplicate. 200,000 “stimulator” cells in RPMI supplemented with 10% human serum were then plated in each well. 200,000 “responder” cells in the same medium were then plated over stimulators to a final volume of 200 μl/well. Background controls received either no stimulator cells, or no responder cells. The plates were incubated at 37° C. and 5% CO2. 1 μCi of tritiated thymidine was added to each well after 4.5 days, and the plates were harvested 12 hours later.

[3] = test system: RPMI 8226 multiple myeloma cells; assay: RPMI 8226 cell proliferation / viability (trypan blue, MTT, 3H-thymidine); assay type: cell-based, human; settings: low dose-titration, FIGS. 23, 24 and 25
Procedure: The human plasmacytoma (multiple myeloma) cell line, RPMI 8226 (American Type Culture Collection, Manassas, Va.), was cultured in RPMI 1640 supplemented with 10 mM HEPES, 1 mM sodium pyruvate, 4.5 g/L glucose, 1.5 g/L bicarbonate and 20% FBS (non-heat inactivated).
Cell proliferation was assayed by three methods—Trypan Blue Exclusion was used to quantify the number of viable cells in culture; 3-(4,5-dimethylthiazol-2-yl)-2,5-diphenyl tetrazolium bromide (MTT) reduction was used to assay mitochondrial activity (and thus cell viability); and ^3H-Thymidine uptake was employed to assay for active DNA synthesis.
The following 5-HT receptor modulating compounds were tested for their effects on RPMI 8226 cells in vitro cultured at the described densities and across the indicated concentration ranges.

RPMI-8226 cells = assay: Hematoxylin-eosin / bis-benzamide staining of RPMI-8226 cytospins; assay type: cell-based, human
Procedure: 2.0×10^5 RPMI-8226 cells were cultured, in 6-well culture plates, in the presence of the indicated drug concentrations, in a total of 5 mL RPMI-1640 supplemented with 10% FBS. Each well was harvested in its entirety and divided into two identical samples for cytospins.
1.0×10^5 RPMI-8226 cells from each treatment group were loaded into Cyto-funnels and centrifuged at 500 rpm for 4 minutes with medium acceleration. Slides were then fixed through graded methanol in PBS (100%, 5 minutes; 80%, 5 minutes; 50%, 5 minutes), washed for 5 minutes in PBS and stored in PBS at 4° C. until stained.
Cytospun slides were stained with Hematoxylin and Eosin, followed by the nuclear stain, bis-benzamide, rinsed and mounted according to standard staining protocols. Slides were visualized under both brightfield and fluorescent light to generate matched images of the same slide field (see, e.g., FIGS. 28 and 29).

murine lymphocytes = assay: Murine mixed lymphocyte reaction (BALB/c vs. C57BL6); assay type: cell-based, mouse; settings: BALB/c vs. C57BL6, FIG. 10
Procedure: MLRs were performed essentially as described in Current Protocols in Immunology (1999, Section 3.12.6-3.12.7). That is, the primary spleen cells obtained from C57/B6J mice were used as stimulators. They were purified as described in Current Protocols in Immunology (1999, Section 3.1.5), and were irradiated (35 Gy) at the Hahnemann Hospital (Philadelphia, Pa.) blood bank facility. Primary spleen cells obtained from BALB/c/BYJ were depleted from the adherent cells using a nylon wool column, and were used as responders.
The various inhibitors were pre-plated onto 96 well, U-bottom plates and all experimental conditions were assayed at least in triplicate. 100,000 C57/B6 cells in RPMI medium, supplemented with 10% FBS, were plated into each well. 200,000 of BALB/c/BYJ cells were plated over the stimulator cells, to a final volume of 200 μl/well. Background controls received either no BALB/c cells, or no C57/B6 cells. One micro Ci of tritiated thymidine was added to each well after 4 days, and the plates were harvested 12 hours later.

[4] = ConA 1 μg/ml, reagent 100 μM, FIG. 6

Row | Compound | relief of phenelzine-induced inhibition (human lymphocytes [1]; ConA 1 μg/ml, FIG. 6) | effect on proliferative response (human lymphocytes [1]; [4]) | effect on stimulation of ConA-stimulated human PBLs (human lymphocytes [1]) | restoration of T cell proliferation in conditioned media (T cells) | effect on activation / proliferative response (human lymphocytes [1]; harvested 72 hours) | effect on activation / proliferative response (human lymphocytes [2]) | effect on growth of RPMI-8226 cells [3] | effect on outcome of murine MLR (murine lymphocytes) | further results
1 | N[C@@H](Cc1c[nH]c2ccccc12)C(=O)O [tryptophan] | had very little effect | enhanced the proliferative response | enhanced the maximal stimulation of the cells | had no effect | – | – | – | – | effect on proliferative response (human lymphocytes [1]; highest ConA dose, 10 μg/ml, harvest 72 hours, FIG. 5C): no enhancement at the highest level; effect on proliferative response (human lymphocytes [1]; weakest signal strength, 0.1 μg/ml ConA, harvest 72 hours, FIG. 5A): augments the proliferative response
2 | Cc1cc2c(cc1Cl)N(C(=O)Nc1ccc(Oc3cccnc3C)nc1)CC2 [SB 242084] | – | – | – | – | inhibit the activation response at pharmacologically relevant concentrations | inhibit the activation response at pharmacologically relevant concentrations | strong inhibition of growth | – | inhibitory profile when dosed at time=0 or time=48 hours (human lymphocytes [1]; ConA 1 μg/ml, harvested 72 hours, FIG. 12): retained the complete inhibitory profile; chromatin / nuclear morphology (RPMI-8226 cells; 50 μM, 9 hour treatment, FIGS. 28, 29): condensed and fragmented chromatin; induction of programmed cell death (RPMI-8226 cells; FIGS. 28 and 29): induced programmed cell death comparable to that induced by the topoisomerase I inhibitor, camptothecin
3 | 5-methyl hydroxytryptamine | – | – | – | – | – | – | – | slight enhancement | –
4 | CSc1ccc2c(c1)C(N1CCN(C)CC1)Cc1ccccc1S2 (stereo not shown) [methiothepin] | – | – | – | – | inhibit the activation response at pharmacologically relevant concentrations | inhibit the activation response at pharmacologically relevant concentrations | strong inhibition of growth | – | –
5 | NCCc1c[nH]c2ccc(O)cc12 [serotonin, 5-hydroxytryptamine] | caused the assay to rebound to baseline levels | did not | enhanced the maximal stimulation of the cells | only marginally restored the assay | – | – | – | – | effect on the assay across ConA concentrations (human lymphocytes [1]; ConA 0.1, 1 and 10 μg/ml, harvest 72 hours, FIG. 5): no effect on the assay until the highest dose of ConA
6 | CNc1cc(NS(=O)(=O)c2ccc(N)cc2)nc(NC)n1 [Ro 04-679] | – | – | – | – | – | – | – | no effects on the outcome of the assay | –
